# Source: patent US10314870B2, “Tropism modified cancer terminator virus (Ad.5/3 CTV;AD.5/3-CTV-M7)” (priority 2012, dated 2019)
# B1: GST-MDA-7: bacterially synthesized GST-MDA-7 protein (protein)
# chain: QEFHFGPCQVKGVVPQKLWEAFWAVKDTMQAQDNITSARLLQQEVLQNVSDAESCYLVHTLLEFYLKTVFKNYHNRTVEVRTLKSFSTLANNFVLIVSQLQPSQENEMFSIRDSAHRRFLLFRRAFKQLDVEAALTKALGEVDILLTWMQKFYKL
# What was measured:
# [1] = cited from earlier work
# [2] = tested on: primary human GBM cells (GBM6, GBM12); experiment: Cell death by trypan blue exclusion in primary human GBM cells; type: cell-based
# Source text: The pooled cell pellets were resuspended and mixed with trypan blue dye.
# GBM6 cells [3] = experiment: Colony formation assay with Calcusyn analysis; type: cell-based, human; details: GBM cells
# Description: GBM6 cells were plated as single cells (500-2,500 per 60-mm dish, in sextuplicate). […] Forty-eight h later cells were washed free of drugs and colonies were permitted to form for 20 days. (n=3, +/−SEM). Using the Calcusyn for Windows program we calculated the fraction affected (Fa) and the Combination Index (CI). A CI value of less than 1.00 indicates a synergy of interaction.
# GBM6 cells [4] = experiment: Autophagy, LC3-GFP vesicle formation; type: cell-based, human
# Description: FIG. 19A-D. Induction of ER stress and autophagy plays a role in the interaction between MDA-7/IL-24 and HDACIs. Panel A. GBM6 cells were transfected in quadruplicate with a plasmid to express an LC3 (ATG8)-GFP fusion protein and in parallel transfected with scrambled siRNA (siSCR) or an siRNA to knock down Beclin/expression. Twenty-four h after transfection cells were treated with GST or GST-MDA-7 (20 nM) and/or SBHA (3 μM). Cells (a representative of 40 per well per time point) were examined 6 h, 12 h and 24 h after treatment using an Axiovert microscope (x40) for the formation of punctate vesicles containing LC3-GFP. Data are plotted as the number of LC3-GFP vesicles per cell (n=-2, +/− SEM) (*p<0.05 greater than GST+VEH; **p<0.05 greater than GST-MDA-7+VEH). Panel B. GBM6 cells were transfected with scrambled siRNA (siSCR) or an siRNA to knock down Beclinl expression. Twenty-four h after transfection cells were treated with GST or GST-MDA-7 (20 nM) and/or SBHA (3 μM). Cells were isolated 48 h later and viability determined by trypan blue exclusion (n=3, +/− SEM) (#p<0.05 less than corresponding value in siSCR cells). Panel C. GBM6 cells were transfected with an empty vector control plasmid or a plasmid to express dominant negative PERK. […] Cells were isolated 6 h after exposure and the phosphorylation of PERK and eIF2α determined (representative n=2). […]
# PDAC cell lines = experiment: MTT cell viability assay in pancreatic cancer cell lines; type: cell-based, human; details: 200 μM
# Description: FIGS. 13A-D. Cancer-specific oncolytic effects of CTV-M7 in pancreatic cancer cells. Pancreatic cancer cells were treated with non-replicating Ad.5-mda-7 or Ad.5/3-mda-7 as well as conditional replication-competent Ads (CRCA) i.e., Ad.5-CTV-M7 and Ad.5/3-CTV-M7 and MTT assays were performed after 3 days. IC50 was calculated using GraphPad Prism 5.0. Points; mean±S.E. of three different experiments each performed in quadruplicate.
# Pancreatic cancer cell lines were infected with Ad in incomplete medium for 3 h followed by treatment with Perillyl alcohol (POH) (200 μM) in complete medium (10% FBS) for 72 h, and cell proliferation assays were performed at O.D. 560 nm using cell proliferation assays after adding 100 μl of 3-(4,5-dimethylthiazol-2-yl)-2,5-diphenyltetrazolium bromide (Sigma Aldrich) (MTT) dye (1 mg/ml) (Sigma-Aldrich).
# [5] = tested on: MIA PaCa-2 and BxPC-3 cells; experiment: ROS formation, carboxy-H2DCFDA fluorescence; type: cell-based, human; details: 200 μM
# Description: FIG. 14. Temporal kinetics of reactive oxygen species (ROS) formation induced by POH. MIA PaCa-2 and BxPC-3 cells were stained with carboxy-H2DCF-DA in PBS for 30 min followed by treatment of POH, and fluorescence was measured using a Flurometer with a green filter at the indicated time points. The readings noted were the difference between POH-treated group compared to untreated control.
# To determine ROS production, cells were stained with 100 μl of 10 μM carboxy-H2DCFDA (Molecular Probes™, Invitrogen) in PBS for 30 min followed by treatment with Perillyl alcohol and fluorescence was measured with a Fluorometer using a green filter at the indicated time points.
# [6] = tested on: MIA PaCa-2/luc xenografts; experiment: MIA PaCa-2/luc xenografts on both flanks, Ad/MB by tail vein with UTMD on left tumor; type: in vivo, nude mice; details: POH 75 mg/kg i.p. daily; Ad.5-vec+POH compared to Ad.5/3-vec
# Description: FIG. 11A-E. Ad.5/3-CTV-M7 in combination with POH completely eradicates primary and distant tumors in nude mice bearing human pancreatic tumor xenografts. Tumor xenografts generated from MIA-PaCa-2 cells stably expressing a luciferase gene (MIA PaCa-2-luc) were established in both the left and right flanks of nude mice. Tumors on the left flank were sonoporated for 10 min following tail-vein injection of the indicated complement treated Ad/MB complex, and treated as described in Materials and Methods section for 3 weeks starting from day 14 (1 injection/week). POH was administered i.p. daily for 4 weeks from day 1 of implantation of cells in nude mice. (A) Bioluminescence imaging (BLI) was performed using Xenogen In Vivo Imaging System (IVIS). BLI was performed every week and luminescence was quantified and tumor growth response curve of the left flank (B) and right flank or distant tumor (C) was plotted. (D) Secreted MDA-7/IL-24 in blood serum was measured using an MDA-7/IL-24 ELISA kit. (E) There was significant increase in ‘bystander’ effect of MDA-7/IL-24 in inhibiting in vivo tumor growth as measured by BLI. […]
# Athymic nude mice were injected s.c. in both flanks with 5×10^6 MIA PaCa-2/luc (a stable clone of MIA PaCa-2 cells containing integrated pGL-3/luc). […] Images were analyzed by Living Image software. […]
molecule,measurement,setting,value
C=C(C)[C@@H]1CC=C(C(=O)O)CC1 [Perillic acid],plasma concentration associated with minimal toxicities,[1]; plasma,500 µM
"O=C(CCCCCCC(=O)NO)NO [SBHA, Suberohydroxamic acid]",effect on lethality of MDA-7/IL-24,"[2]; GBM6, GBM12 infected with Ad.5-mda-7 moi 10, Na Valproate 0.3-1.0 mM, SBHA 0.3-5.0 μM, 48 h, dose-dependent",enhanced the lethality of MDA-7/IL-24
same,interaction with MDA-7/IL-24 protein in colony formation,GBM6 cells [3],synergized
same,effect on MDA-7/IL-24 stimulated autophagy levels,GBM6 cells [4]; SBHA 3 μM with GST-MDA-7 20 nM,enhanced MDA-7/IL-24 stimulated autophagy levels
CCOC(=O)C1=C(N)Oc2ccc(Br)cc2C1C(C#N)C(=O)OCC (centres unmarked) [HA14-1],effect on lethality of Ad.5-mda-7,"[2]; GBM6, Ad.5-mda-7 moi 10, obatoclax 0-200 nM or HA14-1 0-10 μM, 24 h",enhanced the lethality of Ad.5-mda-7
"C=C(C)[C@@H]1CC=C(CO)CC1 [POH, perillyl alcohol]",lethality and proliferation of PDAC cell lines,PDAC cell lines,not lethal and does not affect proliferation
same,ROS levels at 24 h,[5]; 24 h,baseline levels
same,time of maximum ROS levels,[5]; time course,6 h
same,ROS induction,[5]; wild type and mutant K-ras pancreatic cell lines,sufficient to induce significant amounts of ROS
same,effect of the POH dose with empty vector on tumor growth,[6],non-toxic but therapeutically inactive
same,side effects,[1]; POH 800-1600 mg/m^2/dose,minimal side effects
same,stability and detection in plasma,[1]; plasma,very unstable and cannot be detected in plasma
CCCC(CCC)C(=O)[O-].[Na+] [sodium valproate],interaction with MDA-7/IL-24 protein in colony formation,GBM6 cells [3],synergized
B1,autophagy (LC3-GFP vesicle) levels,"GBM6 cells [4]; GST-MDA-7 20 nM, 6 h, 12 h, 24 h, time-dependent",increased autophagy
